Measurements taken from patent publication US8877940B2, “Antibiotic tolerance inhibitors” (Institut National de la Recherche Scientifique, priority 2011, dated 2014).
Entries after “also recorded” stand apart in the source; their conditions may differ.

How the values were obtained:
[1] = system: pyocyanin, an MvfR-regulated virulence factor, P. aeruginosa PA14; experiment: Quantification of pyocyanin (OD520nm of chloroform-extracted cultures); type: cell-based, Pseudomonas aeruginosa; details: very low concentrations, nanomolar range
Method: Pyocyanin levels were determined by measuring OD520nm of chloroform-extracted cultures.
Compounds were tested at various concentrations for their impact on 4-hydroxy-2-alkylquinoline (HAQ) levels, including the MvfR ligands 4-hydroxy-2-heptylquinoline (HHQ) and 3,4-dihydroxy-2-heptylquinoline (PQS), as well as 2-n-heptyl-4-hydroxyquinoline-N-oxide (HQNO) and 2,4-dihydroxyquinoline (DHQ) (FIGS. 2A-2C). Levels of the phenazine, pyocyanin, an MvfR-regulated virulence factor, were also determined.

[2] = system: Raw264.7 macrophage cells infected with PA14; experiment: Viability of PA14-infected macrophage cells (MTT assay); type: cell-based; details: for reduction of PA14-induced cytotoxicity: PA14 MOI 100, 3 h, 100 μM compound
Method: Raw264.7 macrophage cells were cultured in Dulbecco's modified eagles medium (DMEM) containing 10% FCS, 2 mM glutamine and antibiotic-antimycotic solutions. Before infections cells were washed with PBS (without Mg2+ and Ca2+) and antibiotic-free medium was used for infections. The cells were infected with PA14 and PA14 isolates grown in the presence of compounds at an MOI of 100 for 3 h at 37° C. in a 5% CO2 atmosphere. During infections cells were incubated with 100 μM of compounds as well. After 3 hours of PA14 infection, the cells were washed and incubated with DMEM medium containing polymixin B and gentamicin in order to kill the extracellular bacteria. The viability of Raw264.7 was assessed using the MTT assay, which detects the early sign of eukaryotic cell death. The formazan crystals formed in viable, metabolically active cells were dissolved by the addition of 100 μl DMSO and optical density was measured at 570 nm in a microplate reader.
In order to determine whether or not the potent inhibitors are cytotoxic in eukaryotes, Raw 264.7 macrophage cells were exposed to selected compounds. No significant cytotoxicity was observed following compound exposure for 3 hours compared to the DMSO solvent control (FIG. 6A). The cytotoxicity of the macrophage cells was also determined when infected with PA14 bacterial cells alone or in the presence of the compounds.

[3] = system: 4-hydroxy-2-alkylquinoline (HAQ) levels, P. aeruginosa PA14 (MvfR regulon); type: cell-based, Pseudomonas aeruginosa; details: for reduction / inhibition of HAQs: very low concentrations, nanomolar range
[4] = system: ΔmvfR mutant constitutively expressing the pqsABCD genes; experiment: HAQ production in ΔmvfR mutant constitutively expressing pqsABCD (LC/MS); type: cell-based, Pseudomonas aeruginosa; details: 100 μM inhibitor
Source text: However, since these compounds diminish or abolish P. aeruginosa HAQ production, it is possible that they target either the MvfR protein itself or enzymes in the pqs operon that are required for HAQ synthesis. To further understand the target(s) of these compounds, a ΔmvfR mutant constitutively expressing the pqsABCD genes was used. This strain is capable of synthesizing HHQ, HQNO, PQS and DHQ independently of MvfR. […] Since PqsA and PqsD are necessary and sufficient for DHQ production, it is possible that these inhibitors target either PqsB or PqsC enzymes, which are required for HHQ and PQS production.

[5] = system: P. aeruginosa PA14; experiment: Murine burn and infection model; details: ~100 μM compound/mouse at infection and IV at 6 and 24 h; solvent control 38%
Method: A thermal injury mouse model was used as described previously to assess bacterial pathogenicity in 6 week old BALBC mice (Charles River Laboratories). Following mouse anesthetization, a full-thickness thermal burn injury involving 5%-8% of the body surface area was produced on the dermis of the shaved abdomen. An inoculum of 4×10^4 PA14 cells, corresponding to a lethal dose of 50%, was injected intradermally into the burn eschar along with the compound or solvent, prepared as follows: 5 μl of a 50 mM stock in DMSO of compound was added to a solution of 5% CremophorEL/Ethanol (50/50% vol) in 50 μl saline. […] Each mouse also received IV injections of 50 μl of compound or solvent, as prepared above at 6 hours and 24 hours post-infection.
A murine thermal injury and infection model was used to assess the impact of the compounds on P. aeruginosa pathogenesis in animals. Due to the hydrophobic nature of the compounds, 5% CremophorEL/Ethanol (50/50% vol) was used as an emulsifier to dissolve the compound in saline prior to injecting into animals. […] The bacteria and either 100 μM compound/mouse or DMSO control were co-injected at the time of infection. Compounds were also injected 6 hours and 24 hours post-infection.

[6] = system: P. aeruginosa PA14; experiment: Murine burn and infection model, M64 plus ciprofloxacin; type: in vivo, DC-1 mice; details: IV at 6, 20, 28, 40, 60, 68 and 80 h; M64 100 μM (4 mg/Kg), ciprofloxacin 0.4 mg/Kg; 7 days; un-injected controls 30%
Source text: A murine thermal injury model (Stevens et al., J Burn Care Rehabil. 1994; 15:232-235) was used as previously described to further assess bacterial pathogenicity in 6-wk-old DC-1 mice (Rahme et al., Science, 268(5219): p. 1899-902 (1995)) in the presence of combination of Ciprofloxacin (Bayer AG) and M64. Following mouse anesthetization, a full-thickness thermal burn injury involving 5%-8% of the body surface area was produced on the dermis of the shaved abdomen, and an inoculum of about 6-7×10^3 PA14 cells was injected intradermally into the burn eschar along with DMSO or 100 μM M64 compound. 100 μM (4 mg/Kg) of M64, 0.4 mg/Kg of ciprofloxacin (lower than the recommended dose of 10 mg/Kg), or a combination of M64+ciproflocaxin was also injected IV via tail vein at 6, 20, 28, 40, 60, 68 h and 80 h post-infection. Mice survival was subsequently assessed over the course of 7 days. Ten animals per treatment were used. In this set of experiments the concentration of ciprofloxacin used was lower than the therapeutic levels recommended to permit assessment of the possible synergistic effect between M64 and ciprofloxacin.

[7] = target: MvfR binding to pqsA promoter (Pseudomonas aeruginosa, UniProt Q9I4X0)
MvfR binding to pqsA promoter, sequence (Q9I4X0 whole entry, looked up): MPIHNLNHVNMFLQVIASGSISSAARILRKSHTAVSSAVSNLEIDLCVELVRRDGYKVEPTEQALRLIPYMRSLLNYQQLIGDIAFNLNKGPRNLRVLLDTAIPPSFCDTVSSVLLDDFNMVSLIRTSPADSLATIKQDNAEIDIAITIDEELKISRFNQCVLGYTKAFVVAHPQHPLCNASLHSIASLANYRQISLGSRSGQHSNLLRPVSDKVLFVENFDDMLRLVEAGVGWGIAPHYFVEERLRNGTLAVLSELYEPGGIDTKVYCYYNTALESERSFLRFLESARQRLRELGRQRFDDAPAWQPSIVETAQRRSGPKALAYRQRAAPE

SMILES	reduction / inhibition of pyocyanin [1]	reduction of PA14-induced cytotoxicity [2]	activity (impacts on HAQ and pyocyanin levels), structure-activity comparison ([3]; tested at 10 μM)	reduction / inhibition of HAQs [3]	HAQ levels compared to the solvent control [4]	overall surviving mice [5] [%]	survival rate [6] [%]	viability at 100 µM ([2]; Mus musculus, RAW264.7, 3 h, read-out: viable macrophage cells surviving post-infection) [%]	effect on MvfR binding to pqsA promoter (ChIP fold enrichment) [7]
O=C(CSc1nc2ccc([N+](=O)[O-])cc2[nH]1)Nc1ccc(Br)cc1 [Compound M50, N-(4-bromophenyl)-2-((6-nitro-1H-benzo[d]imidazol-2-yl)thio)acetamide]	considerably inhibited	effectively reduced cytotoxicity	most active	considerably inhibited	do not significantly alter HAQ levels	–	–	–	–
O=C(CSc1nc2ccc([N+](=O)[O-])cc2[nH]1)Nc1ccc(Oc2ccccc2)cc1 [Compound M64, 2-((6-nitro-1H-benzo[d]imidazol-2-yl)thio)-N-(4-phenoxyphenyl)acetamide]	one of the most effective; also recorded: considerably inhibited	effectively reduced cytotoxicity	–	one of the most effective; also recorded: considerably inhibited	–	84	75	80	affects MvfR binding to pqsA promoter by competing with the MvfR ligand PQS
O=C(O)c1cn(C2CC2)c2cc(N3CCNCC3)c(F)cc2c1=O [ciprofloxacin, reference compound]	–	–	–	–	–	–	80	–	–
